Two compounds from US11969402B2, “Compositions and methods for skin rejuvenation” (THE JOHNS HOPKINS UNIVERSITY, priority 2019, dated 2024) can be followed below.

One assay deals with wounded skin. Description: Retinoid levels in mouse skin (LC-MS/MS, HPLC-UV). The following applies: for ROL and RE in wounded skin: WT and Tlr3−/− mice. The format is in vivo. How it is done:
Wound Induced Hair Neogenesis (WIHN). All experiments were followed with the present inventors' WIHN protocol^1,9. Briefly, hair was shaved and a 1.2 cm^2 full-thickness skin on the backs of 21-day old (telogen) male and female mice was removed by sterile scissors. A single treatment of RA (30 μl) (0.1 μg per mouse) (Millipore Sigma, R2625) and BMS493 (30 μl) (0.1 μg per mouse) (Cayman Chemical, #17418) was applied topically onto open wound on WD1 of Tlr3^−/− and WT mice, respectively. Poly (I:C) (50 μl) (5 μg per mouse) (Invivogen, tlrl-pic) was injected under the healed scab on WD3 of WT mice as described before^9,34. On WD20-24, numbers of regenerated hair follicles were visualized and quantified in the re-epithelialized skin by non-invasive confocal scanning laser microscopy (CSLM) (Caliber I.D., VIVASCOPE 1500) as published^1,9. As a vehicle (Control), ethanol (EtOH), dimethylsulfoxide (DMSO), or PBS was treated for RA, BMS493, and Poly (I:C), respectively.
Tissue preparation from wounded mice. Wild type (C57BL/6J and 6NJ) and Tlr3^−/− mice were wounded as did in WIHN experiments. On PWD11 when wounds are closed, the center and edge of the wound was separated by scissors. Skin samples were immediately frozen and saved in liquid nitrogen for further analysis.
Determination of Retinoid Levels. For in vitro samples, human scalp keratinocytes were incubated with 0.5 μg per ml of Poly (I:C) for 48 hrs or siRNAs-transfected cells were incubated with 0.1 μg per ml of Poly (I:C) for 48 hrs. For in vivo samples, skin was analyzed from wild-type and Tlr3^−/− unwounded and wounded skin where wound regions (center and edge area) were cut by scalpel. Human skin was analyzed for retinoids with and without CO2 laser treatment as described. All samples were frozen at collection and stored at −80° C. until extraction. For in vitro experiments, media and cell pellets were analyzed separately. For in vivo experiments, tissues were homogenized in saline. Extraction of retinoids was performed under yellow lights using a two-step liquid-liquid extraction that has been described in detail previously using 4,4-dimethyl-RA as an internal standard for RA and retinyl acetate as an internal standard for retinol and total retinyl ester^43-46. For the extraction of retinoids, 1 to 3 ml of 0.025 M KOH in ethanol was added to tissue homogenates (in vivo) or cell culture (in vitro) samples. Then 10 ml hexane (for in vivo tissue sample) or 5 ml hexane (for in vitro cell culture sample) was added to the aqueous ethanol phase. The samples were vortexed and centrifuged for 1 to 3 min at 1000 rpm in a Dynac centrifuge (Becton Dickinson) to facilitate phase separation and pellet precipitated protein. The hexane (top) phase containing nonpolar retinoids (ROL and RE) was removed. 4 M HCl (60-180 μl) was added to the remaining aqueous ethanol phase, samples were vortexed, and then polar retinoids (RA) were removed by extraction with a second 5-10 ml aliquot of hexane as described above. Organic hexane phases were evaporated under nitrogen while heating at approximately 25 to 30° C. in a water bath (model N-EVAP 112, Organomation Associates, Berlin, MA, USA). All samples were resuspended in 60 μl acetonitrile. Only glass containers, pipettes, and syringes were used to handle retinoids.
Levels of RA were determined by liquid chromatography-multistage tandem mass spectrometry (LC-MRM^3) which is an LC-MS/MS method utilizing two distinct fragmentation events for enhanced selectivity^43. RA was measured using a Shimadzu Prominence UFLC XR liquid chromatography system (Shimadzu, Columbia, MD) coupled to an AB Sciex 5500 or 6500+ QTRAP hybrid triple quadrupole mass spectrometer (AB Sciex, Framingham, MA) using atmospheric pressure chemical ionization (APCI) operated in positive ion mode as previously described^43. […]

The test system of assay [1] is normal human keratinocytes. In words: Transcriptome and proteome comparison of keratinocytes treated with Poly (I:C) or RA. In kind it is cell-based. The conditions noted are these: for identical gene transcripts inhibited by Poly (I:C) and RA: overlap of top ranked 100 downregulated transcripts; for identical gene transcripts induced by Poly (I:C) and RA: overlap of top ranked 100 upregulated transcripts; for overlap of inhibited proteins between Poly (I:C) and RA: top ranked 100 downregulated proteins; for overlap of induced proteins between Poly (I:C) and RA: top ranked 100 upregulated proteins. The source says: Microarray analysis. RNA isolated from keratinocytes with or without Poly (I:C) (GSE92646) and mouse wound tissues from wild type (C57BL/6NJ) and Tlr3^−/− with BMS493 and RA were submitted to the JHMI Deep Sequencing & Microarray core for Affymetrix® Human Exon 1.0ST and mouse microarray chip according to manufacturer's protocols. Raw gene expression signals in the form of Affymetrix CEL files were extracted and normalized with Partek® Genomics Suite™ software using the Robust Multichip Analysis (RMA) algorithm. Genes were ranked according to fold change of the intervention, and referred to as top or bottom induced if they are at the highest fold change (top) or lowest fold change (bottom). The significance of gene expression was measured by student's t-test analysis. These datasets generated during the current study are available in the NCBI GEO repository as listed above.
Proteomic analysis. For in vivo samples, wild-type and Tlr3^−/− unwounded and wounded skin where wound regions (center and edge area) were prepared for analysis. For in vitro samples, human primary scalp keratinocytes treated with 0.1 μM retinoic acid (RA) or 0.5 μg per ml Poly (I:C) and control were used. In vivo and in vitro samples were lysed in 5% sodium deoxycholate after washing in phosphate-buffered saline. Lysates were washed, reduced, alkylated and trypsinolyzed on filter as described by Wisniewski et al.^35 and Erde et al.^36. Tryptic peptides were separated on a nanoACQUITY UPLC analytical column (BEH130 C18, 1.7 μm, 75 μm×200 mm, Waters) over a 165 min linear acetonitrile gradient (3-40%) with 0.1% formic acid on a Waters nano-ACQUITY UPLC system, and analyzed on a coupled Thermo Scientific Orbitrap Fusion Tribrid mass spectrometer as described by Williamson et al.^37. Full scans were acquired at a resolution of 120,000, and precursors were selected for fragmentation by higher-energy collisional dissociation (normalized collision energy at 30%) for a maximum 3-second cycle. Tandem mass spectra were searched against a UniProt human reference proteome using MS Amanda algorithm described by Dorfer et al.^38 with a maximum precursor mass error tolerance of 10 ppm. Carbamidomethylation of cysteine and deamidation of asparagine and glutamine were treated as static and dynamic modifications, respectively. Resulting hits were validated at a maximum false discovery rate of 0.01 using a semi-supervised machine learning algorithm Percolator developed by Käll et al.^39. Protein abundance ratios were measured by comparing the MS1 peak volumes of peptide ions, whose identities were confirmed by MS2 sequencing as described above. The Label-free quantifications were performed using an aligned AMRT (Accurate Mass and Retention Time) cluster quantification algorithm Minora (Thermo Fisher Scientific, 2017). Pathway and gene ontology analysis were performed with Qiagen Ingenuity, Panther GO and DAVID databases, as described by Kramer et al.^40, Mi et al.^41, and Huang et al.^42, respectively.

As for “Polyinosinic-polycytidylic acid [Poly (I:C)]”, the “amount of RA during wound healing” value in the assay on wounded skin (Tlr3−/− mice) was “much less so”. Moreover, the “ROL and RE in wounded skin” value with wounded skin (Poly (I:C) vs PBS) is recorded as “not significant”. Also, the “amount of RA during wound healing” value with wounded skin (WT mice) is recorded as “substantially increased”. For the same compound, the “RA in center of the wound before morphogenesis” value in the assay on wounded skin (wild type mice, PWD11, center vs edge, not in Tlr3−/− mice) is recorded as “accumulates more RA”. Also, in assay [1], the “identical gene transcripts inhibited by Poly (I:C) and RA” value was 18%; the “identical gene transcripts induced by Poly (I:C) and RA” value was found to be 13%; the “overlap of inhibited proteins between Poly (I:C) and RA” value was determined as 36%; the “overlap of induced proteins between Poly (I:C) and RA” value is given as 61%.
As for `CC1=C(/C=C/C(C)=C/C=C/C(C)=C/C(=O)O)C(C)(C)CCC1` [RA, all-trans-retinoic acid], in the assay on wounded skin (Tlr3−/− mice, exogenous RA), the “tissue RA levels prior to morphogenesis” value was “measurable increases”. The “ROL and RE in wounded skin” value in the assay on wounded skin (RA vs ethanol) is listed as “not significant”. For the same compound, in assay [1], the “identical gene transcripts inhibited by Poly (I:C) and RA” value is listed as 18%; the “identical gene transcripts induced by Poly (I:C) and RA” value is reported as 13%; the “overlap of inhibited proteins between Poly (I:C) and RA” value is 36%; the “overlap of induced proteins between Poly (I:C) and RA” value was found to be 61%.
